Laboratory results: patent US20230390274A1 (EPIRIUM BIO INC., priority 2020, published 2023)

target: 15-PGDH/HPGD (Homo sapiens (Human), UniProt P15428); assay: hPGDH inhibitor screening biochemical assay; details: 10 nM 15-PGDH/HPGD, 15 μM PGE2, 0.25 mM NAD; read-out: hPGDH: Average IC50
Experimental: A hydroxyprostaglandin dehydrogenase inhibition screening biochemical assay can be performed to assess the synthesized inhibitors provided herein. Provided herein is an exemplary biochemical assay for hPGDH inhibitor screening.
The in vitro biochemical assay can be performed in white, 384 plates in total 20 μl reaction volume consisting of 10 nM of 15-PGDH/HPGD (R&D System #5660-DH), 15 μM Prostaglandin E2 (Sigma, Cat #P5640-10MG) and 0.25 mM β-Nicotinamide adenine dinucleotide sodium salt (Sigma, Cat #N0632-5G) made in reaction buffer (50 mM Tris-HCl, pH 7.5, 0.01% Tween 20) at 10-point dose response curve for test/tool compounds. Briefly, 5 μl (4×) of compounds solution and 5 μl (final concentration, 10 nM) of enzyme solution is added to white 384 well plates and incubated for 10 mins at 37° C. 5 μl (4×) of Prostaglandin E2 and 5 μl (4×) of β-Nicotinamide adenine dinucleotide sodium salt is added to the wells and incubated for 10 mins at rt. Fluorescence is recorded at ex/em=340 nm/485 nm. The percentage (%) inhibition of enzyme activity was determined relative to […] (1% DMSO) and IC50 was calculated using GraphPad prism software (four parameter-variable slope equation).

15-PGDH/HPGD, sequence (P15428 whole entry): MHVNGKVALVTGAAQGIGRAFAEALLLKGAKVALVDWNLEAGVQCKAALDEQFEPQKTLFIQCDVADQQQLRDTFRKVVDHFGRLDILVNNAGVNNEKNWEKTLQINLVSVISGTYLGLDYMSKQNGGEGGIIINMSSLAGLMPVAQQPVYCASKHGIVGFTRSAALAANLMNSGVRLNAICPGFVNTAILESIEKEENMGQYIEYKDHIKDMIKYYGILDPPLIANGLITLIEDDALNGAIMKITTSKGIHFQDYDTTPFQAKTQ

IC50, < 100 nM:
Cc1cc(-n2ccc3cc(C(=O)N4CCCCC4)cnc32)cnc1N [A-208]
Nc1ncc(-n2ccc3cc(C(=O)N4CCCCC4)cnc32)cc1Cl [A-209]
C[C@@H]1C[C@H](C)CN(C(=O)c2cnc3c(ccn3-c3ccc(C(N)=O)cc3)c2)C1 [A-210, 4-(5-((3R,5S)-3,5-dimethylpiperidine-1-carbonyl)-1H-pyrrolo[2,3-b]pyridin-1-yl)benzamide]
O=C(c1cnc2c(ccn2-c2ccc3[nH]ncc3c2)c1)N1CCC(F)(F)CC1 [A-211]
N/C(=N\O)c1ccc(-n2ccc3cc(C(=O)N4CCCCC4)cnc32)cc1 [A-212]
N/C(=N\O)c1cccc(-n2ccc3cc(C(=O)N4CCCCC4)cnc32)c1 [A-213]
Cc1nc(-c2cccc(-n3ccc4cc(C(=O)N5CCCCC5)cnc43)c2)no1 [A-214]
CC(C)(C)C(=O)NCCNC(=O)c1ccc(-n2ccc3cc(C(=O)N4CCC(F)(F)CC4)cnc32)cc1 [A-215, 4-(5-(4,4-difluoropiperidine-1-carbonyl)-1H-pyrrolo[2,3-b]pyridin-1-yl)-N-(2-pivalamidoethyl)benzamide]
CC(C)NC(=O)c1ccc(-n2ccc3cc(C(=O)N4CCC(F)(F)CC4)cnc32)cc1 [A-216]
CC(C)(C)CNC(=O)c1cncc(-n2ccc3cc(C(=O)N4CCC(F)(F)CC4)cnc32)c1 [A-217, 5-(5-(4,4-difluoropiperidine-1-carbonyl)-1H-pyrrolo[2,3-b]pyridin-1-yl)-N-neopentylnicotinamide]
CC(C)(C)NC(=O)c1ccc(-n2ccc3cc(C(=O)N4CCC(F)(F)CC4)cnc32)cn1 [A-218, N-(tert-butyl)-5-(5-(4,4-difluoropiperidine-1-carbonyl)-1H-pyrrolo[2,3-b]pyridin-1-yl)picolinamide]
CCC(CC)NC(=O)c1cncc(-n2ccc3cc(C(=O)N4CCC(F)(F)CC4)cnc32)c1 [A-219, 5-(5-(4,4-difluoropiperidine-1-carbonyl)-1H-pyrrolo[2,3-b]pyridin-1-yl)-N-(pentan-3-yl)nicotinamide]
CS(=O)(=O)NCCNC(=O)c1ccc(-n2ccc3cc(C(=O)N4CCC(F)(F)CC4)cnc32)cc1 [A-220, 4-(5-(4,4-difluoropiperidine-1-carbonyl)-1H-pyrrolo[2,3-b]pyridin-1-yl)-N-(2-(methylsulfonamido)ethyl)benzamide]
NCCNC(=O)c1ccc(-n2ccc3cc(C(=O)N4CCC(F)(F)CC4)cnc32)cc1 [A-221, N-(2-aminoethyl)-4-(5-(4,4-difluoropiperidine-1-carbonyl)-1H-pyrrolo[2,3-b]pyridin-1-yl)benzamide]
O=C(NC(CO)CO)c1ccc(-n2ccc3cc(C(=O)N4CCC(F)(F)CC4)cnc32)cc1 [A-222]
O=C(NCCO)c1ccc(-n2ccc3cc(C(=O)N4CCC(F)(F)CC4)cnc32)cc1 [A-223]
N#Cc1ccc(-n2ccc3cc(C(=O)N4C[C@H](F)C[C@H](F)C4)cnc32)cc1 [A-224, 4-(5-((3R,5S)-3,5-difluoropiperidine-1-carbonyl)-1H-pyrrolo[2,3-b]pyridin-1-yl)benzonitrile]
CCNC(=O)c1ccc(-n2ccc3cc(C(=O)N4CCC(F)(F)CC4)cnc32)cc1 [A-225]
O=C(NC1CCNCC1)c1ccc(-n2ccc3cc(C(=O)N4CCC(F)(F)CC4)cnc32)cc1 [A-226]
O=C(NC1CNC1)c1ccc(-n2ccc3cc(C(=O)N4CCC(F)(F)CC4)cnc32)cc1 [A-227]
O=C(O)Cc1ccc(-n2ccc3cc(C(=O)N4CCC(F)(F)CC4)cnc32)cc1 [A-230, 2-(4-(5-(4,4-difluoropiperidine-1-carbonyl)-1H-pyrrolo[2,3-b]pyridin-1-yl)phenyl)acetic acid]
CS(=O)(=O)NC(=O)c1ccc(-n2ccc3cc(C(=O)N4CCC(F)(F)CC4)cnc32)cc1 [A-232, 4-(5-(4,4-difluoropiperidine-1-carbonyl)-1H-pyrrolo[2,3-b]pyridin-1-yl)-N-(methylsulfonyl)benzamide]
O=C(NC1(C(=O)O)CC1)c1ccc(-n2ccc3cc(C(=O)N4CCC(F)(F)CC4)cnc32)cc1 [A-233]
O=C(NC1(C(=O)O)CC1)c1ccc(-n2ccc3cc(C(=O)N4CCC(F)(F)CC4)cnc32)cn1 [A-234, 1-(5-(5-(4,4-difluoropiperidine-1-carbonyl)-1H-pyrrolo[2,3-b]pyridin-1-yl)picolinamido)cyclopropane-1-carboxylic acid]
CC(C)(CC(=O)O)NC(=O)c1ccc(-n2ccc3cc(C(=O)N4CCC(F)(F)CC4)cnc32)cc1 [A-235]
O=C(O)[C@@H]1CCCN1C(=O)c1ccc(-n2ccc3cc(C(=O)N4CCC(F)(F)CC4)cnc32)cc1 [A-236]
CCC(CC)NC(=O)c1ccc(-n2ccc3cc(C(=O)N4CCC(F)(F)CC4)cnc32)cn1 [A-239, 5-(5-(4,4-difluoropiperidine-1-carbonyl)-1H-pyrrolo[2,3-b]pyridin-1-yl)-N-(pentan-3-yl) picolinamide]
CC(C)(C)CNC(=O)c1ccc(-n2ccc3cc(C(=O)N4CCC(F)(F)CC4)cnc32)cn1 [A-240, 5-(5-(4,4-difluoropiperidine-1-carbonyl)-1H-pyrrolo[2,3-b]pyridin-1-yl)-N-neopentylpicolinamide]
N#Cc1ccc(-n2ccc3cc(C(=O)N4CCC(F)(F)CC4)cnc32)cc1 [A-241, 4-(5-(4,4-difluoropiperidine-1-carbonyl)-1H-pyrrolo[2,3-b]pyridin-1-yl)benzonitrile]
N#Cc1ccc(-n2ccc3cc(C(=O)N4CCC(F)(F)CC4)cnc32)cc1O [A-243]
CC(C)(O)CCc1cc2cc(C(=O)N3CCC(F)(F)CC3)cnc2n1-c1ccc(C#N)cc1 [A-244, 4-(5-(4,4-difluoropiperidine-1-carbonyl)-2-(3-hydroxy-3-methylbutyl)-1H-pyrrolo[2,3-b]pyridin-1-yl)benzonitrile]
CC(C)(C)NC(=O)c1cncc(-n2ccc3cc(C(=O)N4CCC(F)(F)CC4)cnc32)c1 [A-246, N-(tert-butyl)-5-(5-(4,4-difluoropiperidine-1-carbonyl)-1H-pyrrolo[2,3-b]pyridin-1-yl)nicotinamide]
NC(=O)[C@@H]1CCCN1C(=O)c1ccc(-n2ccc3cc(C(=O)N4CCC(F)(F)CC4)cnc32)cc1 [A-248, (S)-1-(4-(5-(4,4-difluoropiperidine-1-carbonyl)-1H-pyrrolo[2,3-b]pyridin-1-yl)benzoyl)pyrrolidine-2-carboxamide]
O=C(c1ccc(-n2ccc3cc(C(=O)N4CCC(F)(F)CC4)cnc32)cc1)N(CCO)CCO [A-249]
O=C(c1cnc2c(ccn2-c2ccc(-c3nnn[nH]3)nc2)c1)N1CCC(F)(F)CC1 [A-250, (1-(6-(1H-tetrazol-5-yl)pyridin-3-yl)-1H-pyrrolo[2,3-b]pyridin-5-yl)(4,4-difluoropiperidin-1-yl)methanone]
O=C(c1cnc2c(ccn2-c2cncc(-c3nnn[nH]3)c2)c1)N1CCC(F)(F)CC1 [A-251, (1-(5-(1H-tetrazol-5-yl)pyridin-3-yl)-1H-pyrrolo[2,3-b]pyridin-5-yl)(4,4-difluoropiperidin-1-yl)methanone]
